# Measurements taken from PMC11500415, “Chemical inhibition of stomatal differentiation by perturbation of the master-regulatory bHLH heterodimer via an ACT-Like domain” (Nature Communications, 2024).
# Assays:
# Format in all cases: cell-based
# SCRM-SPCH heterodimer = target: T1, SCRM-SPCH heterodimer (Arabidopsis thaliana, UniProt Q700C7); details: 100 μM, 1 day
# T1 construct: heterodimerization of SCRM with full-length SPCH, MUTE, or FAMA in the context of the plant cells; combinations of split YFP constructs fused to the full-length stomatal bHLH proteins; nYFP (N terminus of EYFP, 174 amino acids); cYFP (C terminus of EYFP, 64 amino acids); expressed in transfected cells; host or cells: Nicotiana benthamiana leaves (Agrobacterium infiltration)
# T1 sequence (Q700C7 1-364): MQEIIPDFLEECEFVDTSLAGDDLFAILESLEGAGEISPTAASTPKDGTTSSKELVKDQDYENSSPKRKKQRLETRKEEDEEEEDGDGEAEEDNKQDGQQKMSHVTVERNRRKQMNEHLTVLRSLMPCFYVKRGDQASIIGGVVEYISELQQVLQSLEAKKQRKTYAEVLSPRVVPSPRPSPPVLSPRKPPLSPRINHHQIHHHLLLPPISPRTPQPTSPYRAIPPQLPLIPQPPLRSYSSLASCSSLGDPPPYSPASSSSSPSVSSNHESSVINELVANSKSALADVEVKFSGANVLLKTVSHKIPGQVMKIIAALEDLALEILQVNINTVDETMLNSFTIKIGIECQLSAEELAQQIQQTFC
# Excerpt: (§1) For ratiometric BiFC assays, the cDNAs of SPCH, MUTE, and FAMA were cloned into the 35S CaMV promoter-driven destination vector pSPYNE, which contains the N terminus of the EYFP protein (nYFP-174 amino acids), while the cDNA of SCRM and SCRM2 was inserted into pSPYCE, which contains the C terminus of the EYFP protein (cYFP-64 amino acids) (see Supplementary Table 5 for detailed information of the constructs). The constructs were then transformed into Agrobacterium tumefaciens strain GV3101. The Agrobacterium was resuspended in infiltration buffer (10 mM MgCl2, 10 mM 2-(N-morpholino)ethanesulfonic acid [pH 5.6], and 150 µM acetosyringone). Bacterial culture densities were adjusted to a final optical density (OD600) of 1.0, and the cell suspensions were incubated at room temperature for 4 hours prior to infiltration. Equal volumes of cultures carrying the corresponding complementary pair of BiFC constructs (YFPn and YFPc), along with CaMV35S::Histone H2B-mScarlet-I3 and the silencing suppressor plasmid p19 (a gift from Dr. Sir David Baulcombe) were mixed and then co-infiltrated into 4-week-old N. benthamiana leaves. The infiltrated N. benthamiana leaves were incubated at 25 °C for 2 days. Subsequently, leaf discs were cut out and cultured in mock or in liquid 1/2 MS media in mock (DMSO) or 100 µM Stomidazolone for 1 day. Confocal imaging of N. benthamiana leaves was performed using a Leica SP8 confocal microscope using a 20X objective lens (Leica Microsystems), simultaneously capturing YFP (excitation at 518 nm and emission at 530 nm) and mScarlet-I3 (excitation at 569 nm and emission at 600 nm) differential interference contrast channels.
# SCRM2-SPCH heterodimer = target: T2, SCRM2-SPCH heterodimer (Arabidopsis thaliana, UniProt Q700C7); assay: Ratiometric BiFC in N. benthamiana leaves; details: 100 µM
# T2 construct: heterodimerization of SCRM with full-length SPCH, MUTE, or FAMA in the context of the plant cells; we performed rBiFC assays using full-length SCRM2; nYFP (N terminus of EYFP, 174 amino acids); cYFP (C terminus of EYFP, 64 amino acids); expressed in transfected cells; host or cells: Nicotiana benthamiana leaves (Agrobacterium infiltration)
# Excerpt: as §1
# SCRM-FAMA heterodimer = target: T3, SCRM-FAMA heterodimer (Arabidopsis thaliana, UniProt Q56YJ8); assay: Ratiometric BiFC in N. benthamiana leaves; details: 100 μM, 1 day
# T3 construct: heterodimerization of SCRM with full-length SPCH, MUTE, or FAMA in the context of the plant cells; combinations of split YFP constructs fused to the full-length stomatal bHLH proteins; nYFP (N terminus of EYFP, 174 amino acids); cYFP (C terminus of EYFP, 64 amino acids); expressed in transfected cells; host or cells: Nicotiana benthamiana leaves (Agrobacterium infiltration)
# T3 sequence (Q56YJ8 1-414): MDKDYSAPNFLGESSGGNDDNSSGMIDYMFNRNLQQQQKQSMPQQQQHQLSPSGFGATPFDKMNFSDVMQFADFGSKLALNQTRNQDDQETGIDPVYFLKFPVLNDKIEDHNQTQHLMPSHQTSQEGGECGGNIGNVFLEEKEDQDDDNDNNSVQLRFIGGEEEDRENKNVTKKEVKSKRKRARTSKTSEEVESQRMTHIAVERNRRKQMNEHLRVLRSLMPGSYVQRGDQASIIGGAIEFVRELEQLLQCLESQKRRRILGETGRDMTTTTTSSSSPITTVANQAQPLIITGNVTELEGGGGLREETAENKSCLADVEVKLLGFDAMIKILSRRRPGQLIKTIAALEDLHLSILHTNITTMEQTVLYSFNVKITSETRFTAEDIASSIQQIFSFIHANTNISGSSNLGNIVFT
# Excerpt: as §1
# SCRM2-MUTE heterodimer = target: T4, SCRM2-MUTE heterodimer (Arabidopsis thaliana, UniProt Q9M8K6); assay: Ratiometric BiFC in N. benthamiana leaves; details: 100 µM
# T4 construct: heterodimerization of SCRM with full-length SPCH, MUTE, or FAMA in the context of the plant cells; nYFP (N terminus of EYFP, 174 amino acids); expressed in transfected cells; host or cells: Nicotiana benthamiana leaves (Agrobacterium infiltration)
# Excerpt: as §1
# SCRM-MUTE heterodimer = target: T5, SCRM-MUTE heterodimer (Arabidopsis thaliana, UniProt Q9M8K6); assay: Ratiometric BiFC in N. benthamiana leaves; details: 100 μM, 1 day
# T5 construct: expressed in transfected cells; host or cells: yeast strain AH109
# T5 sequence (Q9M8K6 1-202): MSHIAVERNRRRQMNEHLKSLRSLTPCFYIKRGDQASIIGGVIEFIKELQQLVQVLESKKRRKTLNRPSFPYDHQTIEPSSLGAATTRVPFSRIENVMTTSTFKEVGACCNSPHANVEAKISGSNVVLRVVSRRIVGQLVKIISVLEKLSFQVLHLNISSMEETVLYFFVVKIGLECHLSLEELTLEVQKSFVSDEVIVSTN
# Excerpt: as §1
# SCRM2-FAMA heterodimer = target: T6, SCRM2-FAMA heterodimer (Arabidopsis thaliana, UniProt Q56YJ8); assay: Ratiometric BiFC in N. benthamiana leaves; details: 100 µM
# T6 construct: heterodimerization of SCRM with full-length SPCH, MUTE, or FAMA in the context of the plant cells; we performed rBiFC assays using full-length SCRM2; nYFP (N terminus of EYFP, 174 amino acids); cYFP (C terminus of EYFP, 64 amino acids); expressed in transfected cells; host or cells: Nicotiana benthamiana leaves (Agrobacterium infiltration)
# Excerpt: as §1
smiles,measurement,setting,value
O=C1C(c2ccccc2)=NC(NS(=O)(=O)c2ccccc2)(c2ccccc2)N1S(=O)(=O)c1ccccc1 (stereo not drawn) [Stomidazolone],"effect on heterodimerization, YFP/RFP signal ratio (in words)",SCRM-SPCH heterodimer,weakly affecting
same,effect on heterodimerization (in words),SCRM2-SPCH heterodimer,abolished
same,"effect on heterodimerization, YFP/RFP signal ratio (in words)",SCRM-FAMA heterodimer,not affecting
same,effect on heterodimerization (in words),SCRM2-MUTE heterodimer,abolished
same,"effect on heterodimerization, YFP/RFP signal ratio (in words)",SCRM-MUTE heterodimer,severely perturbs
same,effect on heterodimerization (in words),SCRM2-FAMA heterodimer,abolished
